According to ChEMBL document CHEMBL3286112, “Novel aza-analogous ergoline derived scaffolds as potent serotonin 5-HT₆ and dopamine D₂ receptor ligands” (J Med Chem, 2014):
The source made the active and inactive calls. The rule behind the calls is not given here.

Columns and labels:
[1] = molecular target: T1, 5-hydroxytryptamine receptor 6 (Homo sapiens, UniProt P50406); assay: Displacement of [3H]LSD from human 5-HT6 receptor expressed in human HeLa cells after 1 hr by scintillation spectroscopic analysis; type: cell-based
T1 sequence (P50406 whole entry): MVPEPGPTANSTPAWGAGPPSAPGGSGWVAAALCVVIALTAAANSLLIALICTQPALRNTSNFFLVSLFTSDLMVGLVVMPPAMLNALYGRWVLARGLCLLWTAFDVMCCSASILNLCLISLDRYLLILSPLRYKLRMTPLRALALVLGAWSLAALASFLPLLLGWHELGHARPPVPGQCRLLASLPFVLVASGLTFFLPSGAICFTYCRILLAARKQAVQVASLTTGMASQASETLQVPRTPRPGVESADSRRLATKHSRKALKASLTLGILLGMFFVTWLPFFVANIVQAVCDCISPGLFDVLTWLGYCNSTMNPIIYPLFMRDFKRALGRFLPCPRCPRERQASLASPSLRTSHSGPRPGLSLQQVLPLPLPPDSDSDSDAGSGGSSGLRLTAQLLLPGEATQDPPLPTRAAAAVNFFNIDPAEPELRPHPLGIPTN

[2] = molecular target: T1, 5-hydroxytryptamine receptor 6; assay: Displacement of [3H]LSD from human 5-HT6 receptor expressed in hamster BHK cells after 60 mins by scintillation counting analysis; type: cell-based
[3] = molecular target: T2, 5-hydroxytryptamine receptor 2C (Homo sapiens, UniProt P28335); assay: Displacement of [3H]mesulergine from human 5-HT2C receptor expressed in human tsA201 cells after 1 hr by scintillation counting analysis; type: cell-based
T2 sequence (P28335 whole entry): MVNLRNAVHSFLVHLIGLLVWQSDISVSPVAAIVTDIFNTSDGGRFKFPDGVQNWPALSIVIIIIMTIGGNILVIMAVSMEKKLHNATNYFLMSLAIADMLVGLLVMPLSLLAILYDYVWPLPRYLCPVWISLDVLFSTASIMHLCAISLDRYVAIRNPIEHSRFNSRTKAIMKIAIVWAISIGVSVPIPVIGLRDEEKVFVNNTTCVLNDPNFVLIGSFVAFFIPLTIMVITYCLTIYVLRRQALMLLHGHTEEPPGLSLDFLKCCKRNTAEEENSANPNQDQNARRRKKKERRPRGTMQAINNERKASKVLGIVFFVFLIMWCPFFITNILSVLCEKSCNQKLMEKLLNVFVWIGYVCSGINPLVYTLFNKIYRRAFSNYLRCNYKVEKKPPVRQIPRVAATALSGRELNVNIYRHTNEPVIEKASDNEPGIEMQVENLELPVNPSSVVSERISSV

[4] = molecular target: T3, D(2) dopamine receptor (Homo sapiens, UniProt P14416); assay: Displacement of [3H]raclopride from human dopamine D2L receptor expressed in CHOK1a cell membrane after 180 mins by scintillation counting analysis; type: cell membranes
T3 sequence (P14416 whole entry): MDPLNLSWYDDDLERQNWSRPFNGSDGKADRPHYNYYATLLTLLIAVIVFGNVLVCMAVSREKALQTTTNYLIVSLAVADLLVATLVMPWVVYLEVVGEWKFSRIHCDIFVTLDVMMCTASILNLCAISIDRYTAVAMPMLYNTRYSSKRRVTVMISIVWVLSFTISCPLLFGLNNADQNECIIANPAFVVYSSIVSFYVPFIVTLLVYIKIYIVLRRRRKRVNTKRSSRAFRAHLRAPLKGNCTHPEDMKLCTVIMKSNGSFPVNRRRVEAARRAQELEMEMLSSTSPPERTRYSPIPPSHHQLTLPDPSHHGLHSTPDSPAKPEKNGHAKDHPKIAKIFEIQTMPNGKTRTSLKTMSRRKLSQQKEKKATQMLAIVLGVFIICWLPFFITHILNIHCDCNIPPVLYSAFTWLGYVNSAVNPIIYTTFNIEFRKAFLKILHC

[5] = molecular target: T3, D(2) dopamine receptor; assay: Intrinsic activity at human dopamine D2L receptor expressed in CHOK1a cell membrane assessed as [125I]-cAMP accumulation after 20 mins; type: functional, cell-based
[6] = Clearance in human; type: ADME, organism-based; details: in vivo
[7] = molecular target: T2, 5-hydroxytryptamine receptor 2C; assay: Displacement of [3H]5-HT from 5-HT2C receptor (unknown origin) expressed in hamster AV12 cells; type: cell-based
[8] = molecular target: T1, 5-hydroxytryptamine receptor 6; assay: Antagonist activity at human 5-HT6 receptor expressed in CHO cells assessed as reduction in serotonin-induced cAMP accumulation after 30 mins by HTRF assay; type: functional, cell-based
[9] = tested on: tsA201; assay: Selectivity ratio of Ki for human 5-HT2C receptor expressed in human tsA201 cells to Ki for human 5-HT6 receptor expressed in hamster BHK cells; type: cell-based

| Ki [2] | Ki [3] | Ki ([4]; read-out: Ki) | Structure (SMILES) | further results |
| --- | --- | --- | --- | --- |
| – | – | – | CN1C[C@@H](NS(=O)(=O)N(C)C)C[C@@H]2c3cccc4c3c(cn4C)C[C@H]21 [MESULERGINE] | Ki ([1]; read-out: Ki): 776 nM |
| 96 nM | 780 nM | – | Cc1ccc(S(=O)(=O)n2cc3c4c(cccc42)N2CCNCC2C3)cc1 (configuration not stated) | – |
| 29 nM | 1100 nM | – | O=S(=O)(c1ccc(F)cc1)n1cc2c3c(cccc31)N1CCNCC1C2 (configuration not stated) | – |
| – | – | 140 nM | c1ccc(-c2ccc(CN3CCN4c5cccc6[nH]cc(c56)CC4C3)cc2)cc1 (configuration not stated) | – |
| – | – | 130 nM | c1ccc(CN2CCN3c4cccc5[nH]cc(c45)CC3C2)cc1 (configuration not stated) | Intrinsic activity [5]: 51 |
| 168 nM | 2900 nM | – | COc1ccc(S(=O)(=O)n2cc3c4c(cccc42)N2CCNCC2C3)cc1 (configuration not stated) | – |
| 24 nM | 460 nM | – | Cc1cccc(S(=O)(=O)n2cc3c4c(cccc42)N2CCNCC2C3)c1 (configuration not stated) | – |
| – | – | 0.65 nM | c1ccc(-c2cccc(CN3CCN4c5cccc6[nH]cc(c56)CC4C3)c2)cc1 (configuration not stated) | clearance [6]: 65 mL/min/kg; Intrinsic activity [5]: 35; Ki ([4]; read-out: pKi (converted)): 0.229 nM |
| – | – | – | Fc1ccc2c(CCNCc3cccc(OCC(F)(F)C(F)F)c3)c[nH]c2c1 [IDALOPIRDINE] | Ki [7]: 250 nM |
| 24 nM | 370 nM | – | COc1cccc(S(=O)(=O)n2cc3c4c(cccc42)N2CCNCC2C3)c1 (configuration not stated) | – |
| 9 nM | 280 nM | – | O=S(=O)(c1ccccc1)n1cc2c3c(cccc31)N1CCNCC1C2 (configuration not stated) | – |
| – | – | 24 nM | CC(C)CCN1CCN2c3cccc4[nH]cc(c34)CC2C1 (configuration not stated) | Intrinsic activity [5]: 96 |
| – | – | 570 nM | CCCN1CCN2c3cccc4[nH]cc(c34)CC2C1 (configuration not stated) | – |
| – | – | 450 nM | c1ccc(-c2ccccc2CN2CCN3c4cccc5[nH]cc(c45)CC3C2)cc1 (configuration not stated) | Ki ([4]; read-out: pKi (converted)): 200 nM |
| – | – | – | O=S(=O)(c1ccccc1)c1cnc2c(N3CCNCC3)cccc2c1 | Activity [8]: Active |
| – | – | 110 nM | CCCCN1CCN2c3cccc4[nH]cc(c34)CC2C1 (configuration not stated) | – |
| – | – | 98 nM | CCCCCN1CCN2c3cccc4[nH]cc(c34)CC2C1 (configuration not stated) | – |
| – | 460 nM | – | O=S(=O)(c1ccccc1Cl)n1cc2c3c(cccc31)N1CCNCC1C2 (configuration not stated) | – |
| 184 nM | 1200 nM | – | O=S(=O)(c1ccc(Cl)cc1)n1cc2c3c(cccc31)N1CCNCC1C2 (configuration not stated) | – |
| 26 nM | 870 nM | – | COc1ccccc1S(=O)(=O)n1cc2c3c(cccc31)N1CCNCC1C2 (configuration not stated) | – |
| – | – | – | CNc1cc(NS(=O)(=O)c2ccc(N)cc2)cc(NC)n1 | Ki ([1]; read-out: pKi (converted)): 12.3 nM |
| – | – | – | COc1ccc(NS(=O)(=O)c2sc3ccc(Cl)cc3c2C)cc1N1CCNCC1 | Ki [7]: 770 nM |
| 21 nM | 470 nM | – | Cc1ccccc1S(=O)(=O)n1cc2c3c(cccc31)N1CCNCC1C2 (configuration not stated) | – |
| – | 350 nM | – | O=S(=O)(c1ccccc1F)n1cc2c3c(cccc31)N1CCNCC1C2 (configuration not stated) | – |
| 0.75 nM | 240 nM | – | O=S(=O)(c1cccc(F)c1)n1cc2c3c(cccc31)N1CCNCC1C2 (configuration not stated) | Ratio Ki [9]: 250; Activity [8]: Active; clearance [6]: 13.3 mL/min/kg |
| 47 nM | 340 nM | – | O=S(=O)(c1cccc(Cl)c1)n1cc2c3c(cccc31)N1CCNCC1C2 (configuration not stated) | – |
| – | – | 310 nM | CC(C)CN1CCN2c3cccc4[nH]cc(c34)CC2C1 (configuration not stated) | – |
| – | – | 54 nM | c1cc2c3c(c[nH]c3c1)CC1CN(CC3CCCCC3)CCN21 (configuration not stated) | Intrinsic activity [5]: 95 |

| Structure (SMILES) | Ki [2] | Ki [3] | Ki ([4]; read-out: Ki) | further results |
| --- | --- | --- | --- | --- |
| CN1CCN2c3cccc4[nH]cc(c34)CC2C1 (configuration not stated) | – | – | 660 nM | – |
| CCN1CCN2c3cccc4[nH]cc(c34)CC2C1 (configuration not stated) | – | – | 140 nM | – |
| c1cc2c3c(c[nH]c3c1)CC1CNCCN21 (configuration not stated) | – | – | 2100 nM | – |
